Reference: article PMC8845285, “Serotoninergic receptor ligands improve Tamoxifen effectiveness on breast cancer cells” (BMC Cancer, 2022)

Tests used:
[1] = biological target: T1, serotonin 5-HT1A receptor (Rattus norvegicus, UniProt P19327); assay: radioligand binding assay, 5-HT1A, [3H]-8-OH-DPAT; conditions: rat brain cortex
T1 construct: serotonin 5-HT1A receptor, [^3H]-8-OH-DPAT, rat brain cortex; from tissue; host or cells: rat brain cortex
T1 sequence (P19327 1-422): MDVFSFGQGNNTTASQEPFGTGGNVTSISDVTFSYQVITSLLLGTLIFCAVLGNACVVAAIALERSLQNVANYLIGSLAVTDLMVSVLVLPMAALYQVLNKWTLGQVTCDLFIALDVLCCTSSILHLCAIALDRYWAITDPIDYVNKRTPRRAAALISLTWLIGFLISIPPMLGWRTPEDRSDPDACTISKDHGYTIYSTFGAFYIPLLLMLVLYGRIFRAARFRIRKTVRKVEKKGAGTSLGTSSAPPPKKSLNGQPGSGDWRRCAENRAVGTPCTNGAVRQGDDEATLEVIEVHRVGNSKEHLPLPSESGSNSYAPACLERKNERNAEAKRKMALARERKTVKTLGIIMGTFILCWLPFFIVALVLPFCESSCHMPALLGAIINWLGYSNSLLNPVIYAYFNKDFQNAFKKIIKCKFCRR
Description: All reactions were monitored by TLC, carried out on Merck 60G F254 plates with fluorescent indicator and the plates were visualized with UV light (254 nm). Each final compound and intermediate was purified by silica gel column chromatography (Macherey-Nagel 60 0,063–0,2 mm/70–230 mesh). […] Unless otherwise stated, all spectra were recorded in CDCl3. Chemical shifts are reported in ppm using Me4Si as internal standard. The following abbreviations are used to describe peak patterns when appropriate: s (singlet), d (doublet), t (triplet), m (multiplet), q (quartet), qt (quintet), dd (double doublet), ddd (double dd), bs (broad singlet). Mass spectra of the final products were performed on LTQ Orbitrap XL™ Fourier transform mass spectrometer (FTMS) equipped with ESI ION MAX™ source (Thermo Fisher, San José, USA). Melting points were determined using a Buchi B-540 hot-stage instrument and are uncorrected. […] All the compounds were dissolved in 5% DMSO. The following specific radioligands and tissue sources were used: (a)serotonin 5-HT1A receptor, [^3H]-8-OH-DPAT, rat brain cortex; (b) serotonin 5-HT2A receptor, [^3H]ketanserin, rat brain cortex; (c)serotonin 5-HT2C receptor, [^3H]mesulergine, rat brain cortex. Non-specific binding was determined as described in the experimental section, and specific binding as the difference between total and non-specific binding. […] The IC50 values obtained were used to calculate apparent inhibition constants (Ki) by the method of Cheng and Prussoff, from the following equation: Ki = IC50/(1 + S/KD) where S represents the concentration of the hot ligand used and KD its receptor dissociation constant (KD values, obtained by Scatchard analysis, were calculated for each labeled ligand). Radioligand binding assays for 5-HT1A were performed following a published procedure. 5-HT2A and 5-HT2C binding assays were performed reported by Herndon et al..

CTGF = CTGF mRNA levels in Tamoxifen-cultured MCF7 cells, qPCR; format: cell-based, human; conditions: Tamoxifen-cultured MCF7, doses able to restore Tamoxifen responsiveness, 72 h
Description: Total RNA was isolated from cells, quantified (NanoDrop spectrophotometer, Life Technologies, Carlsbad, CA, USA) and reverse transcribed according to the manufacturer’s instructions. Semiquantitative PCR and qPCR assays were performed according to manufacturer’s instructions for Bio-Rad T100 thermal cycler and CFX Connect Real Time system (Biorad, Hercules, CA, USA), respectively. Relative gene expression quantification was measured by 2^−ΔΔCt method normalizing for the reference sample using Rps23 (Ribosomal Protein S23) as housekeeping gene.
Fig. 8 Effect of SER79 and SER68 on Tamoxifen-cultured MCF7 cells. MCF7 cells were cultured in presence of Tamoxifen (1 μM) for 10 days. Estrogen-starved MCF7 and Tamoxifen-cultured MCF7 cells (48 h) were (a-c) treated with SER79 (20 μM, 5 μM) or SER68 (40 μ, 20 μM), (b) treated with Tamoxifen (5 μM) in presence of SER79 (20 μM, 5 μM) or SER68 (40 μM, 20 μM). All treatments were carried out in presence of E2 (100 nM) for 72 h. As positive control, the cells were treated with (a-c) E2 alone or (b) E2 in absence or in presence of SER (as indicated, dotted line). a,b Cell viability was assessed by sulforhodamine B assay (see Methods). The results were reported as percentage of viable cells compared to positive control, considered as maximum viability (100%). c mRNA levels of CTGF were determined by qPCR (see Methods and Table 1). […]

| Structure (SMILES) | Ki ± SD, 5-HT1A [3H]8OH-DPAT [1] | CTGF levels after SER compared with those in Tamoxifen-responsive MCF7 cells (CTGF) | Ki ([1]; read-out: Ki ± SD, 5-HT1A [3H]8OH-DPAT) |
| --- | --- | --- | --- |
| O=C1C2C3C=CC(C3)C2C(=O)N1OCCN1CCN(c2ccc(Cl)c(Cl)c2)CC1 (centres unmarked) [SER68] | No affinity | significantly lower | – |
| N#CN=C(NCCCN1CCN(C(c2ccc(F)cc2)c2ccc(F)cc2)CC1)c1ccccn1 [SER79] | no affinity | similar | > 10 µM |
